Test results from patent US12077503B2, “Substituted cyclic amides and their use as herbicides” (FMC CORPORATION, priority 2015, dated 2024).

How the values were obtained:
Assay type in all cases: in vivo
[1] = test system: rice (Oryra sativa); test: Test B flooded paddy test; details: Oryza sativa, 360 h, Flood, 250 g ai/ha; visually evaluated after 13 to 15 d; read-out: Plant response rating, Rice (0 to 100 scale where 0 is no effect and 100 is complete control)
How it was run: (§1)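 Greenhouse paddy pots with 2-leaf stage plants received compound by direct addition to floodwater 3 cm deep, kept at that level. Scored visually at 13–15 d versus controls (0 no effect; 100 complete control).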

[2] = test system: ducksalad (Heteranthera limosa); test: Test B flooded paddy test; details: Heteranthera limosa, 360 h, Flood, 250 g ai/ha; visually evaluated after 13 to 15 d; read-out: Plant response rating, Ducksalad (0 to 100 scale where 0 is no effect and 100 is complete control)
How it was run: as §1

[3] = test system: sedge, umbrella (small-flower umbrella sedge, Cyperus difformis); test: Test B flooded paddy test; details: Cyperus difformis, 360 h, Flood, 250 g ai/ha; visually evaluated after 13 to 15 d; read-out: Plant response rating, Sedge, Umbrella (0 to 100 scale where 0 is no effect and 100 is complete control)
How it was run: as §1

[4] = test system: barnyardgrass (Echinochloa crus-galli); test: Test B flooded paddy test; details: Echinochloa crus-galli, 360 h, Flood, 250 g ai/ha; visually evaluated after 13 to 15 d; read-out: Plant response rating, Barnyardgrass (0 to 100 scale where 0 is no effect and 100 is complete control)
How it was run: as §1

[5] = test system: giant foxtail (Setaria faberii); test: Test A preemergence; details: Setaria faberi, pre-emergence, 240 h, Preemergence
How it was run: (§2)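 Seeds sprayed preemergence with a directed soil spray, or plants at 2 to 10 cm height and one- to two-leaf stage sprayed postemergence, with test chemicals in a non-phytotoxic solvent mixture containing surfactant, in loam soil–sand blend. Injury rated visually against untreated controls after about 10 d in greenhouse, 0 (no effect) to 100 (complete control).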

[6] = test system: Kochia (Kochia scoparia); test: Test A preemergence; details: Bassia scoparia, pre-emergence, 240 h, Preemergence
How it was run: as §2

[7] = test system: pigweed (Amaranthus retroflexus); test: Test A preemergence; details: Amaranthus retroflexus, pre-emergence, 240 h, Preemergence
[8] = test system: ryegrass, Italian (Italian ryegrass, Lolium multiflorum); test: Test A preemergence; details: Lolium multiflorum, pre-emergence, 240 h, Preemergence
How it was run: as §2

[9] = test system: ragweed (common ragweed, Ambrosia elatior); test: Test A preemergence; details: Ambrosia artemisiifolia, pre-emergence, 240 h, Preemergence
How it was run: as §2

[10] = test system: barnyardgrass (Echinochloa crus-galli); test: Test A preemergence; details: Echinochloa crus-galli, pre-emergence, 240 h, Preemergence
How it was run: as §2

[11] = test system: wheat (Triticum aestivum); test: Test A postemergence; details: Triticum aestivum, post-emergence, 240 h, Postemergence, read-out: Wheat plant response rating (0 to 100 scale)
How it was run: as §2

[12] = test system: giant foxtail (Setaria faberii); test: Test A postemergence; details: Setaria faberi, post-emergence, 240 h, Postemergence, read-out: Foxtail, Giant plant response rating (0 to 100 scale)
How it was run: as §2

[13] = test system: Galium (catchweed bedstraw, Galium aparine); test: Test A postemergence; details: Galium, post-emergence, 240 h, Postemergence, read-out: Galium plant response rating (0 to 100 scale)
How it was run: as §2

[14] = test system: blackgrass (Alopecurus myosuroides); test: Test A postemergence; details: Alopecurus myosuroides, post-emergence, 240 h, Postemergence, read-out: Blackgrass plant response rating (0 to 100 scale)
How it was run: as §2

[15] = test system: Kochia (Kochia scoparia); test: Test A postemergence; details: Bassia scoparia, post-emergence, 240 h, Postemergence, read-out: Kochia plant response rating (0 to 100 scale)
How it was run: as §2

[16] = test system: corn (Zea mays); test: Test A postemergence; details: Zea mays, post-emergence, 240 h, Postemergence, read-out: Corn plant response rating (0 to 100 scale)
How it was run: as §2

[17] = test system: pigweed (Amaranthus retroflexus); test: Test A postemergence; details: Amaranthus retroflexus, post-emergence, 240 h, Postemergence, read-out: Pigweed plant response rating (0 to 100 scale)
How it was run: as §2

[18] = test system: ryegrass, Italian (Italian ryegrass, Lolium multiflorum); test: Test A postemergence; details: Lolium multiflorum, post-emergence, 240 h, Postemergence, read-out: Ryegrass, Italian plant response rating (0 to 100 scale)
How it was run: as §2

[19] = test system: ragweed (common ragweed, Ambrosia elatior); test: Test A postemergence; details: Ambrosia artemisiifolia, post-emergence, 240 h, Postemergence, read-out: Ragweed plant response rating (0 to 100 scale)
How it was run: as §2

[20] = test system: barnyardgrass (Echinochloa crus-galli); test: Test A postemergence; details: Echinochloa crus-galli, post-emergence, 240 h, Postemergence
How it was run: as §2

[21] = 125 g ai/ha, visual rating about 10 d after treatment
[22] = 31 g ai/ha, 0 is no effect, 100 is complete control

SMILES: CN1C[C@H](c2ccc(C(F)(F)F)cc2)[C@@H](C(=O)Nc2ccc(F)nc2F)C1=O [Compound 1347]
- pest or weed control at 250 g/ha [1]: 0%
- pest or weed control at 250 g/ha [2]: 98%
- pest or weed control at 250 g/ha [3]: 0%
- pest or weed control at 250 g/ha [4]: 90%
- pest or weed control at 31 g/ha ([5]; 31 g ai/ha, 0 to 100 scale where 0 is no effect and 100 is complete control, read-out: Foxtail, Giant plant response rating): 100%
- pest or weed control at 125 g/ha ([5]; 125 g ai/ha, 0 to 100 scale (0 no effect, 100 complete control), read-out: Plant response rating, Foxtail, Giant): 100%
- pest or weed control at 31 g/ha ([6]; 31 g ai/ha, 0 to 100 scale where 0 is no effect and 100 is complete control, read-out: Kochia plant response rating): 90%
- pest or weed control at 125 g/ha ([6]; 125 g ai/ha, 0 to 100 scale (0 no effect, 100 complete control), read-out: Plant response rating, Kochia): 90%
- pest or weed control at 31 g/ha ([7]; 31 g ai/ha, 0 to 100 scale where 0 is no effect and 100 is complete control, read-out: Pigweed plant response rating): 90%
- pest or weed control at 125 g/ha ([7]; 125 g ai/ha, 0 to 100 scale (0 no effect, 100 complete control), read-out: Plant response rating, Pigweed): 100%
- pest or weed control at 31 g/ha ([8]; 31 g ai/ha, 0 to 100 scale where 0 is no effect and 100 is complete control, read-out: Ryegrass, Italian plant response rating): 0%
- pest or weed control at 125 g/ha ([8]; 125 g ai/ha, 0 to 100 scale (0 no effect, 100 complete control), read-out: Plant response rating, Ryegrass, Italian): 30%
- pest or weed control at 31 g/ha ([9]; 31 g ai/ha, 0 to 100 scale where 0 is no effect and 100 is complete control, read-out: Ragweed plant response rating): 30%
- pest or weed control at 125 g/ha ([9]; 125 g ai/ha, 0 to 100 scale (0 no effect, 100 complete control), read-out: Plant response rating, Ragweed): 90%
- pest or weed control at 31 g/ha ([10]; 31 g ai/ha, 0 to 100 scale where 0 is no effect and 100 is complete control, read-out: Barnyardgrass plant response rating): 80%
- pest or weed control at 125 g/ha ([10]; 125 g ai/ha, 0 to 100 scale (0 no effect, 100 complete control), read-out: Plant response rating, Barnyardgrass): 100%
- plant injury at 125 g/ha [11, 21]: 30%
- plant injury at 31 g/ha [11, 22]: 20%
- pest or weed control at 125 g/ha [12, 21]: 90%
- pest or weed control at 31 g/ha [12, 22]: 70%
- pest or weed control at 125 g/ha [13, 21]: 70%
- pest or weed control at 31 g/ha [13, 22]: 70%
- pest or weed control at 125 g/ha [14, 21]: 60%
- pest or weed control at 31 g/ha [14, 22]: 30%
- pest or weed control at 125 g/ha [15, 21]: 80%
- pest or weed control at 31 g/ha [15, 22]: 60%
- plant injury at 125 g/ha [16, 21]: 30%
- plant injury at 31 g/ha [16, 22]: 30%
- pest or weed control at 125 g/ha [17, 21]: 90%
- pest or weed control at 31 g/ha [17, 22]: 50%
- pest or weed control at 125 g/ha [18, 21]: 40%
- pest or weed control at 31 g/ha [18, 22]: 0%
- pest or weed control at 125 g/ha [19, 21]: 70%
- pest or weed control at 31 g/ha [19, 22]: 40%
- pest or weed control at 125 g/ha ([20]; 125 g ai/ha, visual rating about 10 d after treatment, read-out: Barnyardgrass plant response rating (0 to 100 scale, 0 no effect, 100 complete control)): 90%
- pest or weed control at 31 g/ha ([20]; 31 g ai/ha, 0 is no effect, 100 is complete control, read-out: Barnyardgrass plant response rating (0 to 100 scale)): 70%
